Key:
5xFAD mice = experiment: Morris water maze in 5xFAD mice; format: in vivo; details: 10 mg/kg orally, 3 months
Description: DTMB was synthesized from Daejung Chemicals (Korea) and was dissolved in dimethyl sulfoxide (Sigma Aldrich, St. Louis, MO, USA) for cell-based experiments. To evaluate the effects of DTMB on 5xFAD mice, DTMB (10 mg/kg) and vehicle (1% carboxymethylcellulose and 10% DMSO) were orally administrated to four groups (wild-type, wild-type + DTMB, 5xFAD, and 5xFAD + DTMB) with a 6 day per week for 3 months.
A white water maze tank (120 cm diameter) was filled with water containing white non-toxic tempera paint to make the water opaque. The maze tank was divided into four quadrants, and four different visual cues were placed at each cardinal point. The water temperature was set to 20–22 °C. The Morris water maze experiment was divided into a training session, during which the mice were placed in the tank to find the platform for five consecutive days, followed by a probe test on day 6. Each mouse was trained over three trials per day and the starting quadrant was different for each trial. The duration of each training trials was 1 min and we guided the mice to the platform thereafter. In the probe test on day 6, the platform was removed, and each mouse was allowed to swim for 60 s. Target quadrant occupancy was measured automatically using a SMART v2.5 video tracking system (Panlab, TX, USA). Sample sizes were 20–25 mice per group.

BV2 cells = experiment: Western blot of NF-κB, NLRP3 and ASC in BV2 cells; format: cell-based, mouse
Description: The BV2 mouse microglia cell line was received from Professor K. H. Suk (Kyungpook National University, Korea). BV2 cells were cultured with Dulbecco’s Modified Eagle Medium (DMEM) (Hyclone, Logan, UT, USA), containing 5% fetal bovine serum (FBS, Hyclone) and 50 μg/mL of gentamicin (Lonza, Switzerland), in a 5% CO2 incubator with a humidified atmosphere at 37 °C. RAW 264.7 macrophage cells were cultured with DMEM that contains 10% FBS and 1% penicillin/streptomycin in a 5% CO2 incubator with a humidified atmosphere at 37 °C.
Cells were lysed with lysis buffer containing 50 mM Tris (pH 7.4), 140 mM NaCl, 5 mM EDTA, and a protease inhibitor tablet, followed by sonication. Lysate protein concentrations were determined using Bradford reagents (AMERSCO, MA, USA). Proteins were resolved by sodium dodecyl sulfate (SDS) polyacrylamide gel electrophoresis, transferred to nitrocellulose membranes (Pall Corporation, New York, NY, USA), and incubated with blocking buffer (5% nonfat dry milk in TBS and 0.1% Tween 20) for 30 min. Western blot analyses were performed using primary antibodies against NF-κB, NLRP3, ASC, nicastrin, pen2 (Cell Signaling Technology, Danvers, MA, USA), Aph1 (Invitrogen), amyloid C-terminal fragment (Santa Cruz Biotechnology, Dallas, TX, USA), and GAPDH (Bethyl Laboratories, Mongomery, TX, USA). Secondary antibodies of rabbit (Promega), rat, and goat (Bethyl Laboratories) were used, and detection was performed with SUPEX ECL reagent (Neuronex, Korea) and an ImageQuant LAS-4000 (GE Healthcare, MA, USA), according to the manufacturer’s instructions. The integrated blot density was quantified through ImageJ.

[1] = biological target: T1, recombinant human PPARα LBD (Homo sapiens, UniProt Q07869); experiment: CNBr-bead pull down assay, PPARα LBD; format: binding; details: drug conjugated CNBr beads
T1 sequence (Q07869 239-466 limits assumed): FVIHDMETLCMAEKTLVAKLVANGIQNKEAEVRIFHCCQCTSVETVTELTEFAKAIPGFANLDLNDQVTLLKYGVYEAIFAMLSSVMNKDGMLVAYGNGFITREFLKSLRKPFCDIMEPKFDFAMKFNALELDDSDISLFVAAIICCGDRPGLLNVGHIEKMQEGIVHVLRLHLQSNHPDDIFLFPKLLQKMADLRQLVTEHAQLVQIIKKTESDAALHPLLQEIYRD
Description: (§1) CNBr Sepharose 4B beads were prepared and activated according to the instruction. 100 mg of CNBr activated Sepharose 4B beads were incubated with drugs or DMSO for 18 h at 4 °C. The drug conjugated beads reacted to his-tagged recombinant PPAR α, β/δ, and γ protein. After 24 h of incubation, we confirmed whether recombinant protein binds to the drug conjugated bead through western blotting experiment.

[2] = biological target: T2, recombinant human PPARγ LBD (Homo sapiens, UniProt P37231); experiment: CNBr-bead pull down assay, PPARγ LBD; format: binding; details: drug conjugated CNBr beads
T2 sequence (P37231 238-503 limits assumed): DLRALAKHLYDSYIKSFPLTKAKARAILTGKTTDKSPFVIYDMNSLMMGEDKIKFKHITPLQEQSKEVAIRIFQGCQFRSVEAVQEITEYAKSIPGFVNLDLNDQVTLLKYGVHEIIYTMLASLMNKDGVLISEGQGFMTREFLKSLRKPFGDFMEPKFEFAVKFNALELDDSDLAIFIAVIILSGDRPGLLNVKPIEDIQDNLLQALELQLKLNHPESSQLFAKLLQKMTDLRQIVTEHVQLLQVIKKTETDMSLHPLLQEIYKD
Description: as §1

[3] = biological target: T3, recombinant human PPAR β/δ LBD (Homo sapiens, UniProt Q03181); experiment: CNBr-bead pull down assay, PPAR β/δ LBD; format: binding; details: drug conjugated CNBr beads
T3 sequence (Q03181 211-439 limits assumed): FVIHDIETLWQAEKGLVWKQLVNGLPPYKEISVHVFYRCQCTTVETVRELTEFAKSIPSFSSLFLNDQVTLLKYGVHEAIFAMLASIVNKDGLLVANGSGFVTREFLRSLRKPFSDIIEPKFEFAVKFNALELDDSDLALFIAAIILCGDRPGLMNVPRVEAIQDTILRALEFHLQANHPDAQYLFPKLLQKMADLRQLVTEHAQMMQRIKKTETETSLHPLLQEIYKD
Description: as §1

primary microglia = experiment: Quantitative PCR of NF-κB target genes in primary microglia; format: cell-based, mice
Description: Primary microglia culture was conducted as described in a previous study. Mice at postnatal day 3 mice were used for the preparation of primary microglia. Newborn mice pups were anesthetized in ice and then sacrificed. Isolated cortex and hippocampus were collected after removing the meninges. Brain tissues were dissociated by incubating in HBSS (Gibco, Gaithersburg, MD, USA) with trypsin (2.5%) for 15 min. Cell homogenates were then incubated in M-CSF (20 ng/mL, R&D Systems) supplemented with DMEM-F12 medium with 10% fetal bovine serum, 10% horse serum, 1% GlutaMAX (Gibco, MD, USA), and 1% penicillin/streptomycin (Welgene, Korea). After 10 days, microglia were purified through shaking at 260 rpm for 2 h.
Total RNA was isolated using TRI Reagent (Molecular Research Center, Cincinnati, OH, USA). RNA was reverse transcribed using the ImProm-II™ Reverse Transcription System (Promega) according to the manufacturer’s instructions. For detection and quantification, a StepOnePlus Real-Time PCR System (Applied Biosystems, Foster City, CA, USA) was used with FastStart Universal SYBR Green Master (Roche, Basel, Switzerland). Real-time qPCR data were analyzed using the comparative CT method. Sample sizes were 10–15 mice per group.

## COc1ccc(-c2cc(=O)oc3c(C)c(OC(=O)[C@H](Cc4c[nH]c5ccccc45)NC(=O)OC(C)(C)C)ccc23)cc1 [DTMB]
5xFAD mice
  target quadrant occupancy (probe test, day 6): markedly improved
BV2 cells
  protein level of ASC: not changed
  protein level of NF-κB: decreased
  protein level of NLRP3: decreased
[1]; PPARα LBD
  binding to PPAR LBD (pull-down, western blot): binds
[1]
  binding to PPARα LBD compared to WY14643 (pull-down): stronger binding to PPARα LBD than WY14643
[2]
  binding to PPAR LBD (pull-down, western blot): binds
[3]
  binding to PPAR LBD (pull-down, western blot): binds
Primary microglia
  mRNA levels of NFκB: no change
Primary microglia; primary microglia, mRNA
  expression of NF-κB target genes Il-6, Il-1β, and Inos: decreased
  expression of anti-inflammatory marker (Arg-1): induced

Source: publication PMC9606171, “Synthetic PPAR Agonist DTMB Alleviates Alzheimer’s Disease Pathology by Inhibition of Chronic Microglial Inflammation in 5xFAD Mice” (Neurotherapeutics, 2022)
